Like-named read-outs stand apart in the source and are kept apart here.
Columns and labels:
[1] = system: phospho-ERK1/2, phospho-p38, phospho-JNK and phospho-c-jun; assay: Western blot of demyelination signaling pathways in sciatic nerve after crush or MJ; type: in vivo, mouse; conditions: western blot 4 and 12 hours after crush; treated before crush
Experimental: (§1) TRO19622 drug (Tocris bioscience, Ref. 2906) was diluted in ethanol to 20 mM and then, the solution was diluted in sterile PBS to 20 μM. TRO19622 treatments were realized by 3 mg/kg intraperitoneal (IP) injections of 20 mM solution or by intra sciatic nerve injections of 2 μl of drug solution 2 μM using a Hamilton syringe or a glass needle in sterile conditions 30 minutes before multiphoton image acquisitions or immunohistochemistry and demyelination studies respectively. Methyl jasmonate drug (Sigma-Aldrich, Ref. 392707) was diluted in 1 ml of sterile PBS to 1M or 3M. Methyl jasmonate treatments were realized by intra sciatic nerve injections of 1 μl of drug solution using a glass needle and micromanipulator in sterile conditions following the same virus injections procedure (see in vivo virus injection in the sciatic nerve method) two hours before multiphoton image acquisition. […] All drug concentrations were previously evaluated by Bordet et al, 2007^5; Goldin et al, 2008^6; Sharov et al, 2007^7.

[2] = system: phospho-c-jun; assay: Immunohistochemistry of nuclear phospho-c-jun in mSC after nerve crush or MJ; type: in vivo, mouse; conditions: immunohistochemistry; TRO19622 30 minutes prior crush
Experimental: The dissected nerve was washed in L15 medium, fixed in Zamboni's fixative (Stefanini et al., 1967^4) for 10 min at room temperature, washed in PBS, and incubated in successive glycerol baths (15, 45, 60, 66% in PBS) for 18 to 24 h each before freezing at −20° C. The nerves were cut in small pieces in 66% glycerol and the perineurium sheet removed. Small bundles of fibers were teased in double-distilled water on Superfrost slides, dried overnight at room temperature, and the slides stored at −20° C. For immunostaining, the teased fibers were incubated for 1 h at room temperature in blocking solution (10% goat serum, 0.2% TritonX100, and 0.01% sodium azide in PBS). Then, the samples were then incubated with anti-ECCD2 primary mouse antibody (1/100, BD biosciences, Ref. 610181), anti-phosphoS63-c-jun primary mouse antibody (1/200, BD Biosciences, Ref. 558036), anti-c-jun primary mouse antibody (1/200, BD Biosciences, Ref. 610326), anti-VDAC primary rabbit antibody (1/100, Cell Signaling, Ref. 4866) or/and MitoTracker Red (1/1000, Molecular Probes, Ref. M7515) in blocking solution overnight at 4° C. The next day, the samples were washed in PBS and incubated for 1 h at room temperature with secondary donkey antibodies coupled to Alexa488, Alexa 594 or Alexa647 (1/1600, Molecular probes) and TO-PRO-3 iodide (50 μM, Invitroge, Ref. T3605). Finally the samples were washed in PBS and mounted in Immu-mount (Thermo Scientific). Images were acquired at room temperature using a 20× or 40× objective, a Zeiss confocal microscope LSM710, and its associated software.
as §1
To go further we also selectively silenced VDAC1 in mSC and measured the expression level of nuclear phospho-c-jun by immunohistochemistry after nerve crush. […]

[3] = system: CMT1A rats; assay: Sciatic nerve morphometry (toluidine blue, electron microscopy) in CMT1A rats; type: in vivo, rat
Experimental: Sciatic nerves of 20 and 28 weeks old diabetic mice or 16 and 24 weeks old CMT1A rats treated with TRO19622 drug or PBS were fixed for 20 min in situ with 4% PFA and 2.5% glutaraldehyde, in 0.1 M phosphate buffer (pH7.3). Then nerves were removed and postfixed overnight in the same buffer.
After washing 30 min in 0.2M PBS phosphate buffer, the nerves were incubated with 2% osmic acid in 0.1M phosphate buffer for 90 minutes at room temperature. Then, samples were washed in 0.2M PBS phosphate buffer, dehydrated using ethanol gradient solutions and embedded in epoxy resin. For electron microscopy of sciatic nerves, ultrathin (70 nm) cross-sections were cut and stained with 1% uranylacetate solution and lead-citrate and analyzed using a HITACHI H7100 electron microscope at the ‘Centre des Resources en Imagerie Cellulaire’ (CRIC) (for further details see Cotter et al., 2010^9). Semi-thin cross-sections (0.7 μm) were cut using a microtome (Leica, RM 2155) with a diamond knife (Histo HI 4317, Diatome). Sections were stained with blue of toluidine and observed using light microscope. G-ratio was determined using GRatioCalculator plugin of Image J. At less 200 fibers per animal were analysed.
While demyelinating diabetes peripheral neuropathy is a commonly acquired disease, demyelination is also the characteristic feature of a large number of inherited diseases called Charcot-Marie-Tooth diseases (CMT). We therefore sought to test whether the inhibition of VDAC1 function could prevent demyelination in these diseases. We choose CMT1A rat strain^42 as this is arguably the most representative animal model of Charcot-Marie-Tooth disease, mimicking CMT1A the most prevalent CMT in humans^10. Twelve weeks old CMT1A rats were daily treated with TRO19622 for 15 or 30 days and one day or two months after treatment, we analyzed MAPK demyelination pathways by western blot. […] However, these effects disappeared two months after treatment. Then we analyzed phospho-c-jun activation in mSC using immunohistochemistry. […] Next, we measured Schwann cell demyelination and g-ratio by toluidine blue staining on semi-thin sciatic nerve sections and on thin sections using electron microscopy.

[4] = system: myelinating Schwann cells; assay: mSC demyelination morphology (confocal microscopy) four days after nerve crush; type: in vivo, mouse; conditions: intraperitoneal or intranerve injections before and daily after nerve injury
Experimental: Mice were anesthetized with isoflurane inhalation and placed under a Stemi2000 microscope (Zeiss). Incision area was shaved and cleaned using betadine solution. After incision, the gluteus superficialis and biceps femoris muscles were separated to reveal the cavity traversed by the sciatic nerve. The nerve was lift out using spatula and a thin glass needle filled with viral solution (8 μl) was introduced into the nerve with a micromanipulator. This solution was injected over 30 min with short pressure pulses using a Picospritzer III (Parker Hannifin) coupled to a pulse generator. After injection, the nerve was replaced into the cavity, the muscles were readjusted, and the wound was closed using clips (for further details see Gonzalez et al., 2014^3).
as §1
Finally we also investigated the demyelination using typical defects induced in the cellular morphology of mSC. Nerves expressing control or VDAC1 shRNAs were crushed to induce demyelination and four days later, when demyelination is maximal, we analyzed the morphology of VDAC1-silenced mSC using confocal microscopy as described previously^19. mSC display long homogenous noodle-like morphology with a regular diameter but during demyelination, they acquire a heterogeneous morphology often alterning large structures (myelin ovoids) with thin processes and their extremities split in fine extensions.

[5] = cited from earlier work

CC(C)CCC[C@@H](C)[C@H]1CC[C@H]2[C@@H]3CCC4=C/C(=N\O)CC[C@]4(C)[C@H]3CC[C@]12C [TRO19622, (NZ)—N-[(8S,9S,10R,13R,14S,17R)-10,13-dimethyl-17-[(2R)-6-methylheptan-2-yl]-1,2,6,7,8,9,11,12,14,15,16,17-dodecahydrocyclopenta[a]phenanthren-3-ylidene]hydroxylamine]
increase in phospho-ERK1/2, phospho-p38, phospho-JNK and phospho-c-jun after nerve crush [1]: strongly reduced | nuclear phospho-c-jun in mSC after nerve crush [2]: strongly reduced | g-ratio of myelinated fibers [3]: significant increase | number and diameter of axons in the nerve [3]: increased | number of demyelinated fibers [3]: reduction | g-ratio of myelinated fibers ([3]; listed as TRO16922): restored a correct g-ratio | number and diameter of axons in the nerve ([3]; listed as TRO16922): rescued axonal loss | number of demyelinating cells after nerve injury [4]: strongly reduced | safety in humans [5]: safe
